This is an account of results in ChEMBL document CHEMBL1158539, “Synthesis and biological activity of 2H-quinolizin-2-one based p38alpha MAP kinase inhibitors” (Bioorg Med Chem Lett, 2010).

Calls of active or inactive are those of the source. Bounds are passed on as bounds.

The nature of data set [1]: Displacement of labeled diltiazem from calcium channel in guinea-pig hind limb skeletal muscle homogenates.
The nature of data set [2]: Clearance in rat at 1 mg/kg, iv and 2 mg/kg, po. The format is ADME, organism-based. As to conditions: in vivo.
Data set [3] can be described thus: Clearance in dog at 0.25 mg/kg, iv and 2 mg/kg, po. The format is ADME, organism-based, Canis lupus familiaris. As to conditions: in vivo.
Data set [4] can be described thus: Clearance in monkey at 0.25 mg/kg, iv and 2 mg/kg, po. Type of data set: ADME, organism-based, Macaca mulatta. The note with it: rhesus monkey, in vivo.
The nature of data set [5]: AUC in rat at 1 mg/kg, iv and 2 mg/kg, po. The note with it: plasma. Type of data set: ADME, organism-based.
Data set [6] can be described thus: AUC in dog at 0.25 mg/kg, iv and 2 mg/kg, po. The format is ADME, organism-based, Canis lupus familiaris. The note with it: plasma.
Data set [7] is described as follows: AUC in monkey at 0.25 mg/kg, iv and 2 mg/kg, po. The format is ADME, organism-based, Macaca mulatta. As to conditions: rhesus monkey, plasma.
Data set [8] is described as follows: Half life in rat at 1 mg/kg, iv and 2 mg/kg, po. As to conditions: in vivo. Type of data set: ADME, organism-based.
Data set [9] is described as follows: Half life in dog at 0.25 mg/kg, iv and 2 mg/kg, po. Type of data set: ADME, organism-based, Canis lupus familiaris. As to conditions: in vivo.
A short description of data set [10]: Half life in monkey at 0.25 mg/kg, iv and 2 mg/kg, po. Type of data set: ADME, organism-based, Macaca mulatta. The note with it: rhesus monkey, in vivo.
The nature of data set [11]: Oral bioavailability in rat at 2 mg/kg. The format is ADME, organism-based. As to conditions: in vivo.
The nature of data set [12]: Oral bioavailability in dog at 2 mg/kg. The format is ADME, organism-based, Canis lupus familiaris. The note with it: in vivo.
A short description of data set [13]: Oral bioavailability in monkey at 2 mg/kg. Type of data set: ADME, organism-based, Macaca mulatta. The note with it: rhesus monkey, in vivo.
Data set [14] concerns the target Mitogen-activated protein kinase 14 (Mus musculus, UniProt P47811).
Description: Inhibition of mouse p38alpha after 3 hrs by SPA method
For data set [15], the target named is Voltage-gated inwardly rectifying potassium channel KCNH2 (Homo sapiens, UniProt Q12809).
Chain of Voltage-gated inwardly rectifying potassium channel KCNH2 (Q12809 whole entry): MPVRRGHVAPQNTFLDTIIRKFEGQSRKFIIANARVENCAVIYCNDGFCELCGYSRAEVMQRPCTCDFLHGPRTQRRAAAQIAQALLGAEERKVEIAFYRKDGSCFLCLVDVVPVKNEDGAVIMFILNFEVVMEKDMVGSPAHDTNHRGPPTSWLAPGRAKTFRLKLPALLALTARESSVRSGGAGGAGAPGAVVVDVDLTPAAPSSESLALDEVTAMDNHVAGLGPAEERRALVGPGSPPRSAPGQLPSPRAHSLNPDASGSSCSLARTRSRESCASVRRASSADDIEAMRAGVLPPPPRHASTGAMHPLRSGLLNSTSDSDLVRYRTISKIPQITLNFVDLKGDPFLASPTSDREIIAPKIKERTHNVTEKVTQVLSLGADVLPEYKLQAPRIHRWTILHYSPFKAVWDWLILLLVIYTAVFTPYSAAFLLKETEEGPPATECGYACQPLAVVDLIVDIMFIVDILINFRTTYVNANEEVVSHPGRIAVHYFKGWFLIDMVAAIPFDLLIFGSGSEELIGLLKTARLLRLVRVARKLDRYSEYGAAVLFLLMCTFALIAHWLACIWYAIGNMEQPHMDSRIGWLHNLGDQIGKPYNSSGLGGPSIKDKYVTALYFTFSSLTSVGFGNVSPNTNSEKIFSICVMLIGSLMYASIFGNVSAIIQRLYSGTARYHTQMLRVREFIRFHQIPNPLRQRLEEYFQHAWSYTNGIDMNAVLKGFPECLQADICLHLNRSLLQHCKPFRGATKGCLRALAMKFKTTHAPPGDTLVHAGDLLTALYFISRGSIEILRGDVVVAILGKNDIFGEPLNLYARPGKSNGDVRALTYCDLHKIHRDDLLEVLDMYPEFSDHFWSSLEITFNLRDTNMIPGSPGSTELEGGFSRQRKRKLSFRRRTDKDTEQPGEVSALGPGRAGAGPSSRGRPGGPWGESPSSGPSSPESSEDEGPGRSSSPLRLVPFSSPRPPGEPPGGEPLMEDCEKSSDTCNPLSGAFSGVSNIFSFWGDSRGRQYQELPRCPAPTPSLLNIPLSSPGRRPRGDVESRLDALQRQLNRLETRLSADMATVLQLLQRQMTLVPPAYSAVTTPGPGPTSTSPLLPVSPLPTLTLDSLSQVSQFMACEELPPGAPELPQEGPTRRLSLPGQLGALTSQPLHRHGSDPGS
Description: Displacement of labeled MK-499 from human ERG in HEK293 cells
Data set [16] deals with THP-1. Description: cells. As to conditions: Homo sapiens, THP-1, 4 h.
Description: Inhibition of LPS-induced TNFalpha production in human THP1 cells after 4 hrs by ELISA
The subject of data set [17] is Blood. Description: tissue or blood. The note with it: Homo sapiens.
Description: (§1) Inhibition of LPS-induced TNFalpha production in human whole blood
Data set [18] relates to Rattus norvegicus. The data set is described as follows: Antiarthritic activity in rat assessed as reduction of LPS-induced TNFalpha level at 1 mg/kg after 4 hrs. Type of data set: functional. Also noted: scale not given: the % may be the effect or the level left.
Data set [19] deals with Rattus norvegicus. The data set is described as follows: Antiarthritic activity in rat assessed as reduction of LPS-induced TNFalpha level at 3 mg/kg after 4 hrs. Type of data set: functional. Set-up: scale not given: the % may be the effect or the level left.
For data set [20], the system named is Rattus norvegicus. Description: Antiarthritic activity in rat assessed as reduction of LPS-induced TNFalpha level at 0.03 mg/kg after 4 hrs. The format is functional. Also noted: scale not given: the % may be the effect or the level left.
Data set [21] relates to Rattus norvegicus. The data set is described as follows: Antiarthritic activity in rat assessed as reduction of LPS-induced TNFalpha level at 30 mg/kg after 24 hrs. Type of data set: functional, organism-based. Set-up: dose 30 mg/kg.
Data set [22] has as its system Rattus norvegicus. The data set is described as follows: Antiarthritic activity in rat assessed as reduction of LPS-induced TNFalpha level at 10 mg/kg after 24 hrs. Type of data set: functional, organism-based. Also noted: dose 10 mg/kg.
Data set [23] deals with Rattus norvegicus. The data set is described as follows: Antiarthritic activity in rat assessed as reduction of LPS-induced TNFalpha level at 1 mg/kg after 24 hrs. Type of data set: functional, organism-based. Also noted: dose 1 mg/kg.
Data set [24] concerns Rattus norvegicus. The data set is described as follows: Antiarthritic activity in rat assessed as reduction of LPS-induced TNFalpha level at 3 mg/kg after 24 hrs. Type of data set: functional, organism-based. Also noted: dose 3 mg/kg.
For data set [25], the target named is T1, Nuclear receptor subfamily 1 group I member 2 (Homo sapiens, UniProt O75469).
T1 sequence (O75469 whole entry): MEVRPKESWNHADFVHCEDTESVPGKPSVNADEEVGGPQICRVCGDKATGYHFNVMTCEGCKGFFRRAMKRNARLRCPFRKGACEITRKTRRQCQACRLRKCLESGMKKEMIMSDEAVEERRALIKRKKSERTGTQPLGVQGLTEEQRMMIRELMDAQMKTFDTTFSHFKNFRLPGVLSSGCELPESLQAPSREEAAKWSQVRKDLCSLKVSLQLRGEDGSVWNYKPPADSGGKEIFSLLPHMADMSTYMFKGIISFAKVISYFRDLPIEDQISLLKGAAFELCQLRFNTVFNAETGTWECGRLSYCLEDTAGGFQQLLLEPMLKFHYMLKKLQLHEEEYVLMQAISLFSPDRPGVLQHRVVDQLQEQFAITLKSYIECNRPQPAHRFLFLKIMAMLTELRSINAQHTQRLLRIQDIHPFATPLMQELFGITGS
The data set is described as follows: Activation of PXR.

A short description of data set [26]: Lipophilicity, log D of the compound. Type of data set: physicochemical. As to conditions: octanol/water.
The subject of data set [27] is Blood.
Description: as §1
A short description of data set [28]: Half life in dog. Type of data set: ADME, organism-based, Canis lupus familiaris. As to conditions: in vivo.
The nature of data set [29]: Half life in monkey. Type of data set: ADME, organism-based, Macaca mulatta. As to conditions: rhesus monkey, in vivo.

Chain of Mitogen-activated protein kinase 14 (P47811 whole entry): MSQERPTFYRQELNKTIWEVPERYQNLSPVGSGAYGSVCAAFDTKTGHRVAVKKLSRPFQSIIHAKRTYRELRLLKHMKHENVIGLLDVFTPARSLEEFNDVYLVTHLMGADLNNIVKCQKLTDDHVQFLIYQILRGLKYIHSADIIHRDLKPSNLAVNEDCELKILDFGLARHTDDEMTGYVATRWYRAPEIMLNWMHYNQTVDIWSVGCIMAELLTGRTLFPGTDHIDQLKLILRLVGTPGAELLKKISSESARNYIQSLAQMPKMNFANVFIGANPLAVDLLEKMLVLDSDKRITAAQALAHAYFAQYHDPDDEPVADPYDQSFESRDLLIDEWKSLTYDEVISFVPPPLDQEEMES

What is called IC50 is the midpoint of a concentration-inhibition curve. By AUC is commonly meant concentration integrated over time. The half-life is the time needed for the level to fall by half in the phase considered. For orientation: bioavailability means dose-corrected exposure relative to a reference, in per cent. As a reminder, the Ki is a measure of affinity in units of concentration, obtained from inhibition or displacement. Regarding `O=c1ccn2c(-c3ccc(F)cc3F)cccc2c1-c1cc(-c2nnco2)ccc1F`, the half-inhibitory concentration (IC50) in [1] is above 30000 nM; in data set [14] it was 13 nM; in [16] it was 25.4 nM; in data set [17] it was 45.4 nM. In addition, the clearance in data set [2] was 3.1 mL/min/kg; in [3], 0.49 mL/min/kg; in [4], 3.6 mL/min/kg. The area under the curve (AUC) in data set [5] came out at 25.6 µM·h; in data set [6], 49.3 µM·h; in data set [7], 5.1 µM·h. Also, the figures for the half-life in [8], in [9] and in data set [10] were 1.8 h, 30.4 h and 5.9 h, respectively. Besides, the results for the bioavailability in [11], in [12] and in data set [13] were 100%, 45% and 47%, respectively. Also, the inhibition constant (Ki) in data set [15] is above 20000 nM.

As to `Cc1nnc(-c2ccc(F)c(-c3c(=O)ccn4c(-c5ccc(F)cc5F)cccc34)c2)o1`, the clearance in data set [2] turned out to be 2.4 mL/min/kg; in data set [3], 0.88 mL/min/kg; in [4], 0.9 mL/min/kg. Further, the values for the AUC in data set [5], in data set [6] and in data set [7] were 21.7 µM·h, 58.6 µM·h and 23.9 µM·h, respectively. In addition, the half-life is 1.4 h in data set [8], 12 h in data set [9] and 9.5 h in data set [10]. The bioavailability in data set [11] was 68%; in data set [12] it was 66%; in data set [13] it was 55%. Further, the Activity is recorded as above 90% in [18], above 90% in data set [19] and 50% in data set [20]. The outcome in data set [21], in [22], in data set [23] and in data set [24] was Active.

One may read the EC50 as the midpoint of the concentration-response curve. In data set [25], `NC(=O)c1cc(F)c(-c2c(=O)ccn3c(-c4ccc(F)cc4F)cccc23)c(F)c1` had a concentration for a half-maximal effect (EC50) above 30000 nM. In addition, the IC50 in data set [14] turned out to be 20 nM; in data set [16], 180 nM; in data set [17], 980 nM.

Broadly, the logD is the decadic logarithm of the distribution of all forms, ionised or not, between an organic phase and buffer at a given pH. In data set [26], `O=C1NCc2c(-c3ccc(F)cc3F)cc(N3CCNCC3)cc2N1c1c(Cl)cccc1Cl` yielded a logD of 4.2.

`N#Cc1cc(F)c(-c2c(=O)ccn3c(-c4ccc(F)cc4F)cccc23)c(F)c1` came in with a 50% effective concentration (EC50) in data set [25] above 30000 nM. In addition, the concentration for half-maximal inhibition (IC50) in [14] was 1.5 nM; in [27], “Not Active”; in data set [16] it was 6490 nM.

Consider `Nc1cc2c(ccc(=O)n2-c2c(F)cccc2F)c(-c2ccc(F)cc2F)n1`, for which the logD in [26] amounted to 2.7. Moreover, the 50% inhibitory concentration (IC50) in data set [1] was determined as 4600 nM; in data set [14], 0.6 nM. Further, the inhibition constant Ki in data set [15] is 5100 nM.

The compound `O=c1ccn2c(-c3ccc(F)cc3F)cccc2c1-c1c(F)cc(-c2nnco2)cc1F` yielded an EC50 in [25] above 30000 nM. For the same compound, the values for the IC50 in data set [14], in data set [16] and in data set [17] were 5.3 nM, 265 nM and 775 nM, respectively.

`COC(=O)c1cc(F)c(-c2c(=O)ccn3c(-c4ccc(F)cc4F)cccc23)c(F)c1`: the concentration for a half-maximal effect (EC50) in [25] was above 30000 nM. In addition, the IC50 is 1.5 nM in data set [14], “Not Active” in data set [27] and 6490 nM in data set [16].

Turning to `Nc1nnc(-c2cc(F)c(-c3c(=O)ccn4c(-c5ccc(F)cc5F)cccc34)c(F)c2)o1`, in data set [25], the EC50 is above 30000 nM. Further, the IC50 in data set [14] amounted to 6.8 nM; in data set [16], 270 nM; in data set [17], 1580 nM.

As for `Cc1noc(-c2cc(F)c(-c3c(=O)ccn4c(-c5ccc(F)cc5F)cccc34)c(F)c2)n1`, in data set [25], the 50% effective concentration (EC50) was above 30000 nM. Also, the results for the half-maximal inhibitory concentration (IC50) in data set [14], in data set [16] and in [17] were 8.8 nM, 430 nM and 690 nM, respectively.

`O=c1ccn2c(-c3ccc(F)cc3F)cccc2c1-c1c(F)cccc1F`: the logD in [26] turned out to be 2.5. Besides, the results for the half-life in [28] and in data set [29] were 20 h and above 100 h, respectively.
